According to ChEMBL document CHEMBL2150850, “Recent advances in the development of selective human MAO-B inhibitors: (hetero)arylidene-(4-substituted-thiazol-2-yl)hydrazines” (Eur J Med Chem, 2012):

Columns and labels:
[1] = molecular target: T1, Amine oxidase [flavin-containing] A (Homo sapiens, UniProt P21397); assay: Inhibition of human MAO-A expressed in baculovirus infected BTI-TN-5B1-4 cells using p-tyramine as substrate incubated for 15 mins prior to substrate addition measured for 15 mins by Amplex red assay
T1 sequence (P21397 whole entry): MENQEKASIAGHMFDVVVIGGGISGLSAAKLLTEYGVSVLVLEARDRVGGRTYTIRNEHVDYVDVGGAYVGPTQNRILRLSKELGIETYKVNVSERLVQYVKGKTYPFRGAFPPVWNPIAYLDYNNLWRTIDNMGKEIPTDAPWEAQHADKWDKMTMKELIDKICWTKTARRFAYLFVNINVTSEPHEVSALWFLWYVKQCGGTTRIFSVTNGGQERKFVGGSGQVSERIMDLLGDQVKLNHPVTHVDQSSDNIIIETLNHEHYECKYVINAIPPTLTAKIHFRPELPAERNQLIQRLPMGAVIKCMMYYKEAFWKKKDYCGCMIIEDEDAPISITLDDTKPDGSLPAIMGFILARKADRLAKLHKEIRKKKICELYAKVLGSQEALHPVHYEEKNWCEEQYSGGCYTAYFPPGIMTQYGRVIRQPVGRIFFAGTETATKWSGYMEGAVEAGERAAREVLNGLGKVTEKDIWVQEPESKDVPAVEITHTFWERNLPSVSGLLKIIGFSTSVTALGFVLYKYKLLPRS

[2] = molecular target: T2, Amine oxidase [flavin-containing] B (Homo sapiens, UniProt P27338); assay: biochemical; format: cell-based, BTI-TN-5B1-4
T2 sequence (P27338 whole entry): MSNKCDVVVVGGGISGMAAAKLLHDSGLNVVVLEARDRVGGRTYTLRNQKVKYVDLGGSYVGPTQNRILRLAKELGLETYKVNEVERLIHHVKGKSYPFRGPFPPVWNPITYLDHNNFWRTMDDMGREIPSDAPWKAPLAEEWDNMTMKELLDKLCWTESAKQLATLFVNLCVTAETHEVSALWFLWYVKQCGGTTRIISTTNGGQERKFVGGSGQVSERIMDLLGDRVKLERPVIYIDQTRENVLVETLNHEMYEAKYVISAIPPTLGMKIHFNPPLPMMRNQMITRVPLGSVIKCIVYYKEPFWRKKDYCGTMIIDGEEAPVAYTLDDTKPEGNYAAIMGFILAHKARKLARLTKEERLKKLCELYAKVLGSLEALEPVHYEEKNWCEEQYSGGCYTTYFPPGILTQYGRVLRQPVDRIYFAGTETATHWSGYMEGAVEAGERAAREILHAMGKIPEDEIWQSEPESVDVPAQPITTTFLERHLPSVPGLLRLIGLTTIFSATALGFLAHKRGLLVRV
Description: Inhibition of human MAO-B expressed in baculovirus infected BTI-TN-5B1-4 cells using p-tyramine as substrate incubated for 15 mins prior to substrate addition measured for 15 mins by Amplex red assay

Homo sapiens = species on record: Homo sapiens; assay: Selectivity ratio of IC50 for human MAO-A to IC50 for human MAO-B
[3] = molecular target: T1, Amine oxidase [flavin-containing] A; assay: Inhibition of human MAO-A expressed in baculovirus infected BTI-TN-5B1-4 cells using p-tyramine as substrate at 100 uM incubated for 15 mins prior to substrate addition measured for 15 mins by Amplex red assay; conditions: for inhibition at 100 µM: BTI-TN-5B1-4, human, 0.25 h; for inhibition (INH): human, bti-tn-5b1-4, 0.25 h, 100 µM
[4] = molecular target: T2, Amine oxidase [flavin-containing] B; assay: Inhibition of human MAO-B expressed in baculovirus infected BTI-TN-5B1-4 cells using p-tyramine as substrate at 100 uM incubated for 15 mins prior to substrate addition measured for 15 mins by Amplex red assay; conditions: for inhibition (INH): human, bti-tn-5b1-4, 0.25 h, 100 µM; for inhibition at 100 µM: BTI-TN-5B1-4, human, 0.25 h

C/C(=N/Nc1nc(-c2ccc(F)cc2)cs1)c1ccco1
IC50 [1]: 5670 nM | IC50 [2]: 320 nM | Ratio IC50 (Homo sapiens): 18

N#Cc1ccc(-c2csc(N/N=C\c3cccnc3)n2)cc1
IC50 [2]: 947 nM | Ratio IC50 (Homo sapiens): > 106 | inhibition at 100 µM [3]: 40%

Fc1ccc(-c2csc(N/N=C\c3cccnc3)n2)c(F)c1
IC50 [2]: 199 nM | Ratio IC50 (Homo sapiens): > 504 | inhibition at 100 µM [3]: 40%

N#Cc1ccc(-c2csc(N/N=C\c3cccs3)n2)cc1
IC50 [1]: 45000 nM | IC50 [2]: 153 nM | Ratio IC50 (Homo sapiens): 294

Fc1ccc(-c2csc(N/N=C\c3ccncc3)n2)cc1
IC50 [2]: 112 nM | Ratio IC50 (Homo sapiens): > 890 | inhibition at 100 µM [3]: 40%

Fc1ccc(-c2csc(N/N=C\c3cccc4ccccc34)n2)c(F)c1
IC50 [2]: 138 nM | Ratio IC50 (Homo sapiens): > 727 | inhibition at 100 µM [3]: 40%

C/C(=N/Nc1nc(-c2ccc([N+](=O)[O-])cc2)cs1)c1nccs1
IC50 [1]: 8970 nM | IC50 [2]: 366 nM | Ratio IC50 (Homo sapiens): 24

C/C(=N/Nc1nc(-c2ccc(C#N)cc2)cs1)c1cc2ccccc2oc1=O
inhibition (INH) [3]: Not Active | inhibition (INH) [4]: Not Active

Fc1ccc(-c2csc(N/N=C\c3cccs3)n2)c(F)c1
IC50 [2]: 16.6 nM | Ratio IC50 (Homo sapiens): > 6030 | inhibition at 100 µM [3]: 40%

Fc1ccc(-c2csc(N/N=C\c3c[nH]c4ccccc34)n2)c(F)c1
IC50 [1]: 15300 nM | IC50 [2]: 529 nM | Ratio IC50 (Homo sapiens): 29

C/C(=N/Nc1nc(-c2ccc(C#N)cc2)cs1)c1ccccc1
inhibition at 100 µM [3]: 40% | inhibition at 100 µM [4]: 40%

O=[N+]([O-])c1ccc(-c2csc(N/N=C\c3cccc4ccccc34)n2)cc1
inhibition (INH) [3]: Not Active | inhibition (INH) [4]: Not Active

C/C(=N/Nc1nc(-c2ccc(F)cc2F)cs1)c1ccc2ccccc2c1
inhibition (INH) [3]: Not Active | inhibition at 100 µM [4]: 40%

N#Cc1ccc(-c2csc(N/N=C\c3cccc4ccccc34)n2)cc1
IC50 [2]: 1100 nM | Ratio IC50 (Homo sapiens): > 91 | inhibition at 100 µM [3]: 40%

C/C(=N/Nc1nc(-c2ccc([N+](=O)[O-])cc2)cs1)c1ccccc1
inhibition at 100 µM [3]: 40% | inhibition at 100 µM [4]: 40%

C/C(=N/Nc1nc(-c2ccc([N+](=O)[O-])cc2)cs1)c1ccncc1
IC50 [2]: 13.1 nM | Ratio IC50 (Homo sapiens): > 7620 | inhibition (INH) [3]: Not Active

C/C(=N/Nc1nc(-c2ccc(F)cc2F)cs1)c1cccs1
IC50 [2]: 3.01 nM | Ratio IC50 (Homo sapiens): > 33200 | inhibition at 100 µM [3]: 40%

O=[N+]([O-])c1ccc(-c2csc(N/N=C\c3c[nH]c4ccccc34)n2)cc1
inhibition (INH) [3]: Not Active | inhibition (INH) [4]: Not Active

C/C(=N/Nc1nc(-c2ccc(F)cc2)cs1)c1cc2ccccc2oc1=O
inhibition (INH) [3]: Not Active | inhibition (INH) [4]: Not Active

C/C(=N/Nc1nc(-c2ccc(F)cc2)cs1)c1nccs1
IC50 [1]: 7550 nM | IC50 [2]: 1210 nM | Ratio IC50 (Homo sapiens): 6.2

C/C(=N/Nc1nc(-c2ccc([N+](=O)[O-])cc2)cs1)c1ccccn1
IC50 [1]: 38700 nM | IC50 [2]: 26.7 nM | Ratio IC50 (Homo sapiens): 1450

O=[N+]([O-])c1ccc(-c2csc(N/N=C\c3ccncc3)n2)cc1
inhibition (INH) [3]: Not Active | inhibition (INH) [4]: Not Active

Fc1ccc(-c2csc(N/N=C\c3ccncc3)n2)c(F)c1
IC50 [2]: 549 nM | Ratio IC50 (Homo sapiens): > 182 | inhibition (INH) [3]: Not Active

C/C(=N/Nc1nc(-c2ccc([N+](=O)[O-])cc2)cs1)c1cc2ccccc2oc1=O
inhibition (INH) [3]: Not Active | inhibition (INH) [4]: Not Active

C/C(=N/Nc1nc(-c2ccc(F)cc2)cs1)c1ccccn1
IC50 [1]: 41700 nM | IC50 [2]: 24.3 nM | Ratio IC50 (Homo sapiens): 1720

C/C(=N/Nc1nc(-c2ccc(C#N)cc2)cs1)c1cccs1
IC50 [2]: 3110 nM | Ratio IC50 (Homo sapiens): > 32 | inhibition at 100 µM [3]: 40%

Fc1ccc(-c2csc(N/N=C\c3cccs3)n2)cc1
IC50 [2]: 338 nM | Ratio IC50 (Homo sapiens): > 295 | inhibition at 100 µM [3]: 40%

C/C(=N/Nc1nc(-c2ccc(F)cc2F)cs1)c1cc2ccccc2oc1=O
IC50 [2]: 1420 nM | Ratio IC50 (Homo sapiens): > 70 | inhibition (INH) [3]: Not Active

C/C(=N/Nc1nc(-c2ccc(F)cc2F)cs1)c1cccnc1
IC50 [2]: 18.4 nM | Ratio IC50 (Homo sapiens): > 5430 | inhibition at 100 µM [3]: 40%

N#Cc1ccc(-c2csc(N/N=C\c3ccco3)n2)cc1
IC50 [2]: 1490 nM | Ratio IC50 (Homo sapiens): > 67 | inhibition at 100 µM [3]: 40%

O=C(NCCN1CCOCC1)c1ccc(Cl)cc1 [MOCLOBEMIDE]
inhibition (INH) [4]: Not Active

Fc1ccc(-c2csc(N/N=C\c3cccnc3)n2)cc1
IC50 [2]: 482 nM | Ratio IC50 (Homo sapiens): > 207 | inhibition at 100 µM [3]: 40%

C/C(=N/Nc1nc(-c2ccc(F)cc2F)cs1)c1ccccc1
IC50 [1]: 21200 nM | IC50 [2]: 90.3 nM | Ratio IC50 (Homo sapiens): 235

C/C(=N/Nc1nc(-c2ccc([N+](=O)[O-])cc2)cs1)c1cccnc1
inhibition (INH) [3]: Not Active | inhibition (INH) [4]: Not Active

N#Cc1ccc(-c2csc(N/N=C\c3c[nH]c4ccccc34)n2)cc1
IC50 [2]: 762 nM | Ratio IC50 (Homo sapiens): > 131 | inhibition (INH) [3]: Not Active

C/C(=N/Nc1nc(-c2ccc(C#N)cc2)cs1)c1nccs1
IC50 [1]: 2850 nM | IC50 [2]: 2000 nM | Ratio IC50 (Homo sapiens): 1.4

C/C(=N/Nc1nc(-c2ccc(C#N)cc2)cs1)c1ccco1
inhibition at 100 µM [3]: 40% | inhibition at 100 µM [4]: 40%

C/C(=N/Nc1nc(-c2ccc(F)cc2F)cs1)c1ccco1
IC50 [2]: 40.1 nM | Ratio IC50 (Homo sapiens): > 2490 | inhibition at 100 µM [3]: 40%

C/C(=N/Nc1nc(-c2ccc(F)cc2F)cs1)c1nccs1
IC50 [1]: 5460 nM | IC50 [2]: 13 nM | Ratio IC50 (Homo sapiens): 421

C/C(=N/Nc1nc(-c2ccc(F)cc2)cs1)c1cccs1
IC50 [2]: 15.5 nM | Ratio IC50 (Homo sapiens): > 6460 | inhibition at 100 µM [3]: 40%

O=[N+]([O-])c1ccc(-c2csc(N/N=C\c3ccco3)n2)cc1
inhibition at 100 µM [3]: 40% | inhibition at 100 µM [4]: 40%

C/C(=N/Nc1nc(-c2ccc(F)cc2)cs1)c1ccncc1
IC50 [2]: 2.54 nM | Ratio IC50 (Homo sapiens): > 39400 | inhibition at 100 µM [3]: 40%

C/C(=N/Nc1nc(-c2ccc(C#N)cc2)cs1)c1ccc2ccccc2c1
inhibition (INH) [3]: Not Active | inhibition at 100 µM [4]: 40%

Fc1ccc(-c2csc(N/N=C\c3ccc4c(c3)OCO4)n2)cc1
IC50 [2]: 1080 nM | Ratio IC50 (Homo sapiens): > 93 | inhibition at 100 µM [3]: 40%

O=[N+]([O-])c1ccc(-c2csc(N/N=C\c3cccnc3)n2)cc1
inhibition (INH) [3]: Not Active | inhibition (INH) [4]: Not Active

O=[N+]([O-])c1ccc(-c2csc(N/N=C\c3ccc4c(c3)OCO4)n2)cc1
inhibition (INH) [3]: Not Active | inhibition (INH) [4]: Not Active

Fc1ccc(-c2csc(N/N=C\c3ccco3)n2)c(F)c1
IC50 [1]: 9110 nM | IC50 [2]: 217 nM | Ratio IC50 (Homo sapiens): 42

C/C(=N/Nc1nc(-c2ccc([N+](=O)[O-])cc2)cs1)c1cccs1
IC50 [2]: 298 nM | inhibition (INH) [3]: Not Active

Fc1ccc(-c2csc(N/N=C\c3cccc4ccccc34)n2)cc1
IC50 [2]: 12800 nM | Ratio IC50 (Homo sapiens): > 7.8 | inhibition at 100 µM [3]: 40%

C/C(=N/Nc1nc(-c2ccc([N+](=O)[O-])cc2)cs1)c1ccco1
IC50 [2]: 3590 nM | inhibition at 100 µM [3]: 40%

Fc1ccc(-c2csc(N/N=C\c3ccco3)n2)cc1
IC50 [2]: 653 nM | Ratio IC50 (Homo sapiens): > 153 | inhibition at 100 µM [3]: 40%

N#Cc1ccc(-c2csc(N/N=C\c3ccc4c(c3)OCO4)n2)cc1
IC50 [2]: 301 nM | Ratio IC50 (Homo sapiens): > 332 | inhibition at 100 µM [3]: 40%

C/C(=N/Nc1nc(-c2ccc(C#N)cc2)cs1)c1cccnc1
IC50 [2]: 2.09 nM | Ratio IC50 (Homo sapiens): > 47800 | inhibition at 100 µM [3]: 40%

O=[N+]([O-])c1ccc(-c2csc(N/N=C\c3cccs3)n2)cc1
inhibition at 100 µM [3]: 40% | inhibition at 100 µM [4]: 40%

Fc1ccc(-c2csc(N/N=C\c3ccc4c(c3)OCO4)n2)c(F)c1
IC50 [2]: 1170 nM | Ratio IC50 (Homo sapiens): > 85 | inhibition at 100 µM [3]: 40%

Fc1ccc(-c2csc(N/N=C\c3c[nH]c4ccccc34)n2)cc1
IC50 [2]: 578 nM | Ratio IC50 (Homo sapiens): > 173 | inhibition at 100 µM [3]: 40%

C/C(=N/Nc1nc(-c2ccc(F)cc2F)cs1)c1ccncc1
IC50 [2]: 16.7 nM | Ratio IC50 (Homo sapiens): > 5990 | inhibition at 100 µM [3]: 40%
